Experimental data from patent publication US20240108590A1, “MAINTENANCE OF PROGRAMMED CHRONIC LIVER INJURY OF FAH GENE-DEFICIENT ANIMALS AND APPLICATION THEREOF IN PREPARATION OF HETEROLOGOUS LIVER MODELS” (Jiangsu University, priority 2020, published 2024).

How the values were obtained:
[1] = tested on: primary human hepatocytes (PHH); assay: Measurement of human albumin secretion in serum of PHH-transplanted rats (ELISA); assay type: in vivo, rat
Protocol: 100 μl of rat peripheral blood was collected through the tail vein, and after coagulation at room temperature, centrifuged at 400-g for 10 minutes, with the supernatant collected to obtain serum. The secretion level of human albumin was tested according to the instructions of the Human Albumin ELISA Quantitation Set kit. Serum was diluted 10-100000 times according to the actual concentration, so that the calculated value falls within the linear range of the standard curve to obtain accurate values.
(§1) 12. Primary Hepatocyte Transplantation and Programmed NTBC Circulation • (1) Preparation before transplantation: Female FRG rats aged 7-8 weeks were intraperitoneally injected with 30 mg/kg Retrorsine 2 weeks before transplantation, and the concentration of NTBC in daily water was reduced from the normal maintenance concentration (5˜8 mg/L) to low concentration (0.2 mg/L) 1 week before transplantation. When the programmed NTBC cycle began, daily NTBC water was provided according to the method of 0.2 mg/L×7 days+5 mg/L×4 days (one cycle period of 11 days in total).

rat livers [2] = assay: Ki67 staining of rat livers with or without RS pretreatment; assay type: in vivo; conditions: RS pretreatment vs none, after 2 months of programmed NTBC controlling
Protocol: 7. Immunohistochemistry • (1) The steps of dewaxing and rehydration are the same as above. • (2) Draw a circle around the sample with an ImmunoPen, drop a drop of 3% H2O2 for 15 minutes at room temperature for blocking endogenous peroxidase. • (3) Wash twice with PBS for 5 minutes each time. • (4) The blocking was carried with 1:20 Normal horse serum (dissolved in 1% BSA-PBS), incubated at room temperature for 20 minutes and washed for 3 times with PBS. • (5) The primary antibody was added, then the slices were put in a humid box, sealed and kept overnight at 4 degrees. • (6) Wash three times with PBS for 5 minutes each time. • (7) Secondary antibody was added and incubated at room temperature for 30 minutes. Wash three times with PBS for 5 minutes each time. • (8) AB solution in ABC kit (1:100 dilution of solution A and B) was added and incubated at room temperature for 30 minutes. Wash three times with PBS for 5 minutes each time. • (9) DAB coloration was carried and the time for coloration was adjusted according to different antibodies. • (10) Hematoxylin counterstaining for 20 minutes. Rinse with tap water for half an hour. • (11) Gradient dehydration: 50% ethanol, 70% ethanol, 80% ethanol, 90% ethanol, 100% ethanol, each for 2 minutes. • (12) After 15-30 minutes of xylene, sections were sealed with neutral resin and saved. […]

[3] = tested on: hALB-positive hepatocytes; assay: Ki67 and hALB counterstaining of humanized livers; assay type: in vivo, rat; conditions: NTBC^P, 7 months after transplantation
Protocol: 8. Immunofluorescence Staining • (1) Frozen sections (7 μm) were fixed in 4% PFA at room temperature for 10 minutes, or in methanol:acetone (1:1) at −30° C. for 30 minutes. • (2) Wash three times with 0.1% tween-PBS for 5 minutes each time. • (3) 10% goat or donkey serum was used for blocking for 60 minutes at room temperature. • (4) The primary antibody was used for incubation overnight at 4° C. • (5) Wash three times with 0.1% tween-PBS for 5 minutes each time. • (6) The secondary antibody conjugated with fluorescein was used for incubation at room temperature for 60 minutes. • (7) Wash three times with PBS for 5 minutes each time. • (8) DAPI was added and the sections were mounted by mounting medium and preserved.

Afp = assay: Quantitative qPCR of rat Afp gene in liver; assay type: in vivo; conditions: long-term programmed NTBC controlling (5+4 and 7+4)
Protocol: 1 μg RNA was reverse-transcribed into cDNA with Revert Aid RT kit according to manufacturer's instructions. According to the instructions of THUNDERBIRD SYBR qPCR Mix kit, cDNA was amplified and quantitatively analyzed on a quantitative PCR machine. Relative expression levels of target genes were based on ACTB as an internal reference. All data were repeated at least twice.

rat livers [4] = assay: Sirius red staining, degree of liver fibrosis; assay type: in vivo; conditions: programmed NTBC 7+4 compared with 5+4
humanized livers = assay: Detection of humanized liver tumorigenesis (liver/bodyweight ratio, histology, AFP); conditions: NTBC^P, 7 months after PHH transplantation
Protocol: Under the programmed NTBC controlling scheme, NTBC^P, (7+4: 7 days of 4% NTBC+4 days of 100% NTBC cycle; and Retrorsine pretreatment) mentioned above, humanized livers were obtained and liver/bodyweight ratios were calculated 7 months after transplantation of PHH in FRG rats.

[5] = tested on: primary human hepatocytes (PHH); assay: Repopulation rate of human hepatocytes in FRG rat livers (hNuclei immunostaining); assay type: in vivo; conditions: cyclic NTBC withdrawal/administration based on stepped withdrawal or body weight change, Fah-deficient rats, preliminary tests
Protocol: as §1
By immunostaining of the human-specific marker hNuclei, the repopulation rates of humanized rat livers can be calculated.

[6] = tested on: Fah−/−Rag2−/−IL2rg−/− rats (FRG rats); assay: Survival of FRG rats under NTBC supply / programmed NTBC controlling; assay type: in vivo, rat
Protocol: Fah^−/−Rag2^−/−IL2rg^−/− rats (FRG rats) were housed in the Experimental Animal Center of Jiangsu University.
In the past feeding, FRG rats were daily supplied with 5-8 mg/L. In the present disclosure, the lowest dose of 5 mg/L NTBC was set as 100% NTBC; According to the weight (250-300 g) and the amount of water (25-50 ml/day) of rats, we can get: • 4% NTBC: equivalent to an average of 0.03 mg/kg/day; • 100% NTBC: equivalent to an average of 0.75 mg/kg/day. • (2) The transplantation was performed under an anesthesia machine using isoflurane. The rat was fixed with its abdomen facing upward, and cleaned and disinfected with iodine and alcohol after dehairing. • (3) By cutting the epidermis and muscle layers, the hepatic portal vein was found. 2×10^6 human primary hepatocytes (resuspended in 800 μl DMEM+10% FBS) were slowly injected with a 26G needle. After completing the injection and paused for a few seconds, the needle was then pulled out, with the needle port quickly pressed with a sterile cotton swab. • (4) After pressing for about 1 minute, with no blood effusion be observed, the muscle and epidermis were sutured and the wound was disinfected with alcohol cotton.
The optimal NTBC maintenance concentration was determined by comparing the survival rate of rats at different NTBC concentrations (0%, 1%, 4%, 10%, 100%).
Due to a long period of the humanization process and in order to further improve the long-term survival rate of rats under liver injury, the inventors designed a series of NTBC dosage regimens, which are called Programmed NTBC controlling scheme with a fixed cycle period (Programmed NTBC controlling, NTBC^P), including 5, 7 and 9 days of maintenance in 4% NTBC conditions, respectively, and 4 days of 100% NTBC recovery after that to alleviate accumulated liver injury (FIG. 2C).

FRG rats = assay: Liver function test (serum ALT and AST); assay type: in vivo, rat
Protocol: The content of alanine aminotransferase (ALT) and aspartate aminotransferase (AST) in rat serum was measured according to the instructions of biochemical analyzer FUJI DRI-CHEM 7000V (Fujifilm. Japan).

UGT2B7 [7] = conditions: in rats; cited from earlier work
UGT2B7 [8] = assay: UGT2B7 metabolism test in vivo; parameters: species or system rat; conditions: rats with liver humanization vs control group, after oral AZT
Protocol: Liver humanized and […] FRG rats were orally administered 15 mg/kg zidovudine (Wako), and peripheral blood was collected after 0, 0.5, 1, 2, 4 and 8 hours. After 30 μl of plasma was diluted 2 fold with PBS, the contents of substrates and metabolites were detected by LC-MS/MS (Agilent 1200 HPLC and ABI 4000 mass-spectrometer).

UGT2B7 [9] = target: T1, UGT2B7 (Homo sapiens, UniProt P16662); conditions: in human; cited from earlier work
T1 sequence (P16662 24-529): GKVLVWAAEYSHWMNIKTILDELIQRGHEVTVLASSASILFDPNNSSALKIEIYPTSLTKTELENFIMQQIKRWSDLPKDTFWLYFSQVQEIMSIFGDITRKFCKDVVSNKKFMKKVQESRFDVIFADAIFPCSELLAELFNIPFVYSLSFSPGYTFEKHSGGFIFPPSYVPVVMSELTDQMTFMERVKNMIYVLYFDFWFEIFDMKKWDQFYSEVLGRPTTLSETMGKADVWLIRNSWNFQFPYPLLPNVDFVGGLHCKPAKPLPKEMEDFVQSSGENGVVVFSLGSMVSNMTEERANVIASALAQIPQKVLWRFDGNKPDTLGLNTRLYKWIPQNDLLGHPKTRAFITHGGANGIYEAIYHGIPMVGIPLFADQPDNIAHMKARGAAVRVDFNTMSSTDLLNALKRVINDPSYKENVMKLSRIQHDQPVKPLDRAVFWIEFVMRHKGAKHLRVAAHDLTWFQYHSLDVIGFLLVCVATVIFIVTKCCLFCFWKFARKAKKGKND

## Retrorsine
[1]; RS pretreatment vs none, within 4 weeks after PHH transplantation, NTBC 7+4
  human albumin secretion level: increased significantly
[1]; Retrorsine combined with partial hepatectomy, before development of NTBC^P scheme
  human albumin secretion level: 90 µg/mL
Rat livers [2]
  proportion of Ki67 positive cells in rat livers: significantly lower

## O=C1CCCC(=O)C1C(=O)c1ccc(C(F)(F)F)cc1[N+](=O)[O-] [NTBC, 2-(2-nitro-4-trifluoromethylbenzoyl)-1.3 cyclohexanedione]
[3]
  proportion of Ki67-positive cells in hALB-positive hepatocytes: more than 10%
Afp
  expression of rat liver oncogene Afp: did not lead to abnormal upregulation
Rat livers [4]
  degree of liver fibrosis: more significant
Humanized livers
  AFP gene and protein levels: no abnormal up-regulation
  tumor formation (histology): no tumor formation
Humanized livers; vs nontransplanted controls
  liver/bodyweight ratio: not significantly increased
[1]; NTBC^P (7+4) with Retrorsine pretreatment, 7 months after PHH transplantation
  human albumin secretion level, mean: 1.7 ± 0.3 mg/mL
[5]
  proportion of human hepatocyte repopulation: less than 10%
[6]; NTBC concentration 4% of the maintenance dose (5 mg/L)
  median survival time: 22 days
[6]; PHH-transplanted FRG rats, NTBC^P (7+4) with Retrorsine pretreatment
  rats surviving for at least 20 weeks: 6/7
[6]; maintenance of 100% NTBC (5 mg/L in daily water)
  healthy survival of FRG rats: at least 1.5 years
FRG rats; 4% NTBC compared with 10% NTBC
  levels of ALT and AST: higher levels of ALT and AST
FRG rats; programmed NTBC 7+4 compared with 5+4
  levels of ALT and AST: significantly higher

## Cc1cn([C@H]2C[C@H](N=[N+]=[N-])[C@@H](CO)O2)c(=O)[nH]c1=O [AZT, zidovudine]
UGT2B7 [7]
  metabolic conversion rate of AZT to AZT-5′-glucuronide: 10%
UGT2B7 [8]
  AZT-5′-glucuronide concentration: significantly higher
UGT2B7 [9]
  AZT metabolized to AZT-5′-glucuronide: 75%
